Assay: Measurement of pKa Value
Type: physicochemical
Settings: pKa value of monomers, measured to identify whether the structure is dissolvable in developers
Procedure: To determine whether a repeating monomer unit of a polymer according to the present invention has a structure dissolvable in common developers, pKa value was measured.
The pKa value was measured for a variety of monomers having different structures to identify whether hydrate is dissolvable in developers.

C=Cc1ccc(O)cc1 [MONOMER 2, vinylphenol]
pKa: 9.97

C=C(C)C(=O)O [MONOMER 3]
pKa: 4.58

OC(CC1CC2C=CC1C2)(C(F)(F)F)C(F)(F)F (centres unmarked) [MONOMER 4]
pKa: 9.67

C=Cc1ccc(C(O)(C(F)(F)F)C(F)(F)F)cc1 [MONOMER 5]
pKa: 8.96

OC(C1CC2C=CC1C2)C(F)(F)C(O)(O)C(F)(F)F (centres unmarked) [MONOMER 6]
pKa: 8.33

— patent US6800418B2, “Fluorine-containing photosensitive polymer having hydrate structure and resist composition comprising the same” (Samsung Electronics, priority 2001, dated 2004)
